Reference: US20050164951A1, “Inhibitors for the soluble epoxide hydrolase” (The Regents of the University of California, priority 2003, published 2005)
Where two headings read alike, the source gives them in different places.

How the values were obtained:
[1] = Blood concentration after oral administration of 950 and AUDA-nBE, human pharmacokinetic profile; format: in vivo
Method: FIG. 16 provides a sample preparation procedure for a pharmacokinetic study. A 5 μl whole blood sample was drawn into a capillary at a specific time point, each sample was extracted and anaylzed by LC/MS-MS. […] AUDA is the active metabolite of AUDA-nBE. […] 0.05 mg/kg. (B). 0.1 mg/kg. […] The compounds were administered at the same time in the same formulation. […] 21 mg (0.3 mg/kg) 950 and AUDA-nBE were orally administrated with starch. (B). 7 mg (0.1 mg/kg) formulated 950 and AUDA-NBE were taken with (HPMC, starch and lactose). (C). […] 950 with HPMC and Starch. (B). 950 in lactose and HPMC. […] HPMC forms a gel which slowly erodes; lactose enhances erosion at it moves through the gut and starch retards it. These formulations are combined, ball milled, and then placed in ‘0’ capsule and not compressed.

mouse sEH = molecular target: T1, mouse sEH (Mus musculus, UniProt P34914); experiment: Inhibition of recombinant mouse sEH, IC50 assay with 4-nitrophenyl-trans-2,3-epoxy-3-phenylpropyl carbonate as substrate; format: biochemical; conditions: read-out: IC50 (μM) Mouse sEH
T1 construct: made in house; host or cells: baculovirus expression system
T1 sequence (P34914 1-554): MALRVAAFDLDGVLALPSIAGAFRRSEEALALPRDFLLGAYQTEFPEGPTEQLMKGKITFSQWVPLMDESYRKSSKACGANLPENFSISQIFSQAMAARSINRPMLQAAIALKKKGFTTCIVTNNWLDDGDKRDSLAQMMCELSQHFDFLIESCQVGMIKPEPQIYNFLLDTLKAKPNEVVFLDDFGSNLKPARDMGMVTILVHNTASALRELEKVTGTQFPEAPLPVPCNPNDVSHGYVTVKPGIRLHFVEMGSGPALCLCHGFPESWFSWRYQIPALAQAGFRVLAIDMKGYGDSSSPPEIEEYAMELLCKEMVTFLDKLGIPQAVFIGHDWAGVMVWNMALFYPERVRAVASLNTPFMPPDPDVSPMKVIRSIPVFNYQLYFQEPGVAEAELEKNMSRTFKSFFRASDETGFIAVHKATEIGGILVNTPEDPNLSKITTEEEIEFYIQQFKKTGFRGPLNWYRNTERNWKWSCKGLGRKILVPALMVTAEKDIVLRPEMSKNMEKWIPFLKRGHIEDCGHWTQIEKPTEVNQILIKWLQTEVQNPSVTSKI
Method: (§1) Assays were performed in triplicate. […] The curve was generated from at least three separate runs, each in triplicate, to obtain the standard deviation (SD) given in Table 1 thru Table 4.

human sEH = molecular target: T2, human sEH (Homo sapiens, UniProt P34913); experiment: Inhibition of recombinant human sEH, IC50 assay with 4-nitrophenyl-trans-2,3-epoxy-3-phenylpropyl carbonate as substrate; format: biochemical
T2 construct: made in house; host or cells: baculovirus expression system
T2 sequence (P34913 1-555): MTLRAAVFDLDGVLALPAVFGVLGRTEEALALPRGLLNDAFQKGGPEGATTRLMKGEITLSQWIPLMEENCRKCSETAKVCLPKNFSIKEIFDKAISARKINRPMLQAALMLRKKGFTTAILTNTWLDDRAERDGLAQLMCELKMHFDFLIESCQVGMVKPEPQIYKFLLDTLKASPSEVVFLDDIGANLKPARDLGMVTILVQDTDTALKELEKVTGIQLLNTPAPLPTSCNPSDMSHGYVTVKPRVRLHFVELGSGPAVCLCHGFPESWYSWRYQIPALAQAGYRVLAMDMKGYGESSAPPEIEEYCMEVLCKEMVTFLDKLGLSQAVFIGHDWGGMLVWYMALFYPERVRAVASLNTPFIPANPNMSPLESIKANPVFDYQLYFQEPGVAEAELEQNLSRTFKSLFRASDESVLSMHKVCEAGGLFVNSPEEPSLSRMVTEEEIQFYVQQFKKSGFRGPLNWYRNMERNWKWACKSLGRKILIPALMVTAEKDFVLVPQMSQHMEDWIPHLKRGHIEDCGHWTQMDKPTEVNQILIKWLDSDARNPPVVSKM
Method: as §1

[2] = Tables 17a and b, read-out: IC50 (μM) Human sEH
[3] = Table 7, established protocols, read-out: IC50 (μM) Human sEH
[4] = Table 9, established protocols, read-out: IC50 (μM) Human sEH
[5] = Table 8, established protocols, read-out: IC50 (μM) Human sEH

| IC50 (mouse sEH; Tables 17a and b) | IC50 (human sEH; [2]) | SMILES | further results |
| --- | --- | --- | --- |
| 0.73 ± 0.01 µM | 1.1 ± 0.01 µM | O=C(CC1CCCCC1)NCCCc1ccccc1 [Compound 990] | – |
| 0.05 ± 0.01 µM | 1.6 ± 0.01 µM | O=C(CCCCc1ccccc1)NC1CCCCC1 [Compound 992] | – |
| 2.1 ± 0.01 µM | 4 ± 0.01 µM | O=C(CC1CCCCC1)NCCc1ccccc1 [Compound 993] | – |
| 0.05 ± 0.01 µM | 0.1 ± 0.01 µM | CCCCC(O)CCCCNC(=O)NC12CC3CC(CC(C3)C1)C2 (stereo not shown) [Compound 994] | – |
| 11 ± 0.01 µM | 22.1 ± 0.01 µM | CCCCCNC(=O)NC(CO)c1ccccc1 (stereo not shown) [Compound 995] | – |
| 2.3 ± 0.01 µM | 63 ± 0.01 µM | O=C(NCCCCCCCCCCCn1ccnc1)NC12CC3CC(CC(C3)C1)C2 [Compound 997] | – |
| 0.1 ± 0.01 µM | 3.7 ± 0.01 µM | O=C(Nc1ccc2ccccc2c1)NC1CCCCC1 [Compound 998] | – |
| 0.05 ± 0.01 µM | 0.24 ± 0.01 µM | CCCCCCCCC(NC(=O)CCCCCCCCCCCNC(=O)NC12CC3CC(CC(C3)C1)C2)C(=O)O (stereo not shown) [Compound 1001] | – |
| 0.05 ± 0.01 µM | 0.13 ± 0.01 µM | CCCC(C)COCCOCCOCCCCCNC(=O)NC12CC3CC(CC(C3)C1)C2 (stereo not shown) [Compound 1003] | IC50 (mouse sEH; Table 7, established protocols): 0.05 ± 0.01 µM; IC50 (human sEH; [3]): 0.13 ± 0.01 µM |
| 0.05 ± 0.01 µM | 0.16 ± 0.01 µM | O=C(NCCCCCOCCCCCOCC(F)(F)F)NC12CC3CC(CC(C3)C1)C2 [Compound 1004] | IC50 (mouse sEH; Table 7, established protocols): 0.05 ± 0.01 µM; IC50 (human sEH; [3]): 0.13 ± 0.01 µM |
| 0.05 ± 0.01 µM | 0.11 ± 0.01 µM | CCOC(=O)CCCCCCOCCCCCNC(=O)NC12CC3CC(CC(C3)C1)C2 [Compound 1006] | IC50 (mouse sEH; Table 7, established protocols): 0.05 ± 0.01 µM; IC50 (human sEH; [3]): 0.11 ± 0.01 µM |
| 0.09 ± 0.01 µM | 100 ± 0.01 µM | O=C(CCCNC(=O)NC12CC3CC(CC(C3)C1)C2)NC(C(=O)N1CCCC1C(=O)O)c1c[nH]cn1 (stereo not shown) [Compound 1012] | – |
| 0.05 ± 0.01 µM | 1.5 ± 0.01 µM | CSC(NC(=O)C(NC(=O)CCCNC(=O)NC12CC3CC(CC(C3)C1)C2)c1c[nH]cn1)C(=O)O (stereo not shown) [Compound 1013] | – |
| 1.3 ± 0.01 µM | 8.7 ± 0.01 µM | O=C(NN1CCOCC1)NC12CC3CC(CC(C3)C1)C2 [Compound 1015] | – |
| 0.05 ± 0.01 µM | 6 ± 0.01 µM | O=C(NCCCN1CCOCC1)NC12CC3CC(CC(C3)C1)C2 [Compound 1016] | – |

The remaining lines, values behind:

| SMILES | IC50 (mouse sEH; Tables 17a and b) | IC50 (human sEH; [2]) | further results |
| --- | --- | --- | --- |
| COCCOCCOCCOCCCCCNC(=O)NC12CC3CC(CC(C3)C1)C2 [Compound 952] | – | – | pharmacokinetics ([1]; see FIGS. 15-27): improved pharmacokinetics |
| CCCC(C)COCCCCCNC(=O)NC12CC3CC(CC(C3)C1)C2 (stereo not shown) [Compound 955] | – | – | detection in blood ([1]; FIG. 27, after oral 950): not detected at any time point |
| O=C(CC1CCCCC1)Nc1ccccc1 [Compound 964] | 3.7 ± 0.01 µM | 16 ± 0.01 µM | – |
| COc1ccc(NC(=O)CC2CCCCC2)cc1 [Compound 965] | 0.15 ± 0.01 µM | – | IC50 (human sEH): 6 ± 0.01 µM |
| O=C(CC1CCCCC1)Nc1cccc(Cl)c1 [Compound 966] | 0.58 ± 0.01 µM | 2.1 ± 0.01 µM | – |
| O=C(CC12CC3CC(CC(C3)C1)C2)NCCCc1ccccc1 [Compound 967] | 0.07 ± 0.01 µM | 0.12 ± 0.01 µM | – |
| O=C(Cc1ccccc1)NC1CCCCC1 [Compound 968] | 2.4 ± 0.01 µM | 14 ± 0.01 µM | – |
| O=C(Cc1cccc(Cl)c1)NC1CCCCC1 [Compound 969] | 0.56 ± 0.01 µM | 38 ± 0.01 µM | – |
| COc1ccc(CC(=O)NC2CCCCC2)cc1 [Compound 970] | 1.4 ± 0.01 µM | 4.8 ± 0.01 µM | – |
| O=C(CCCc1ccccc1)NC1CCCCC1 [Compound 971] | 0.11 ± 0.01 µM | 1.4 ± 0.01 µM | – |
| CC(C)OCCOCCOCCCCCNC(=O)NC12CC3CC(CC(C3)C1)C2 [Compound 974] | 0.05 ± 0.01 µM | 0.1 ± 0.01 µM | – |
| O=C(NCCCCCOCCOCCOCCO)NC12CC3CC(CC(C3)C1)C2 [Compound 975] | – | – | IC50 (mouse sEH; Table 7, established protocols): 0.05 ± 0.01 µM; IC50 (human sEH; [3]): 0.1 ± 0.01 µM |
| CC(O)c1cccc2c(S(=O)(=O)NCCOCCOCCCCCNC(=O)NC34CC5CC(CC(C5)C3)C4)cccc12 (stereo not shown) [Compound 976] | 0.05 ± 0.01 µM | 0.1 ± 0.01 µM | – |
| CCCCC(CO)NC(=O)NC1CCCCC1 (stereo not shown) [Compound 977] | 0.1 ± 0.01 µM | 0.25 ± 0.01 µM | – |
| CCCCC(CO)NC(=O)Nc1cccc(Cl)c1 (stereo not shown) [Compound 978] | 8.4 ± 0.01 µM | 1.9 ± 0.01 µM | – |
| CCCCC1COC(Nc2cccc(Cl)c2)=N1 (stereo not shown) [Compound 980] | 49 ± 0.01 µM | 60 ± 0.01 µM | – |
| C=CCOC1CCC(NC(=O)NC23CC4CC(CC(C4)C2)C3)CC1 (stereo not shown) [Compound 982] | – | – | IC50 (mouse sEH; Table 9, established protocols): 0.05 ± 0.01 µM; IC50 (human sEH; [4]): 0.1 ± 0.01 µM |
| CC(C)=CCOC1CCC(NC(=O)NC23CC4CC(CC(C4)C2)C3)CC1 (stereo not shown) [Compound 983] | – | – | IC50 (mouse sEH; Table 9, established protocols): 0.05 ± 0.01 µM; IC50 (human sEH; [4]): 0.1 ± 0.01 µM |
| CC(C)=CCC/C(C)=C/COC1CCC(NC(=O)NC23CC4CC(CC(C4)C2)C3)CC1 (stereo not shown) [Compound 984] | – | – | IC50 (mouse sEH; Table 9, established protocols): 0.05 ± 0.01 µM; IC50 (human sEH; [4]): 0.1 ± 0.01 µM |
| O=C(NC1CCC(OCCOCCOCC(F)(F)F)CC1)NC12CC3CC(CC(C3)C1)C2 (stereo not shown) [Compound 985] | – | – | IC50 (mouse sEH; Table 9, established protocols): 0.05 ± 0.01 µM; IC50 (human sEH; [4]): 0.1 ± 0.01 µM |
| CC(C)c1cccc2c(S(=O)(=O)NCCCOCCCCCNC(=O)NC34CC5CC(CC(C5)C3)C4)cccc12 [Compound 986] | 0.05 ± 0.01 µM | 0.29 ± 0.01 µM | – |
| CCCCCOC(=O)CCCCC(=O)Nc1cccc(Cl)c1 [Compound 987] | 1.7 ± 0.01 µM | 5.9 ± 0.01 µM | – |
| CCCCCOC(=O)CCCNC(=O)Cc1cccc(Cl)c1 [Compound 988] | 2.9 ± 0.01 µM | 5 ± 0.01 µM | – |
| CCCCCCCCCCCC(=O)NC12CC3CC(CC(C3)C1)C2 [Compound 989] | – | – | IC50 (mouse sEH; Table 8, established protocols): 0.05 ± 0.01 µM; IC50 (human sEH; [5]): 5 ± 0.3 µM |
| CCOC(=O)c1ccc(C(C#N)OC(=O)C2CCCC(NC(=O)NC34CC5CC(CC(C5)C3)C4)C2)cc1 (stereo not shown) [Compound 1014] | – | – | IC50 (mouse sEH; Table 9, established protocols): 0.05 ± 0.01 µM; IC50 (human sEH; [4]): 0.14 ± 0.01 µM |
| CCCCCOC(=O)CCCNC(=O)CC12CC3CC(CC(C3)C1)C2 [Compound 1017] | – | – | IC50 (mouse sEH; Table 8, established protocols): 0.05 ± 0.01 µM; IC50 (human sEH; [5]): 0.43 ± 0.02 µM |
| CCCCCCCCCCNC(=O)CC12CC3CC(CC(C3)C1)C2 [Compound 1018] | – | – | IC50 (mouse sEH; Table 8, established protocols): 0.05 ± 0.01 µM; IC50 (human sEH; [5]): 0.1 ± 0.01 µM |
